The values below come from patent US9884089B2, “BPI and its congeners as radiation mitigators and radiation protectors” (Dana-Farber Cancer Institute, Inc., priority 2011, dated 2018).

Assay [1] relates to BALB/c mice after 7 Gy TBI. Put plainly: In vivo radiation mitigation: survival after 7 Gy TBI. Further details: species or system mouse. The settings on record: 7 Gy TBI (LD95/30), treatment initiated 24 hours after irradiation; Mantel-Cox log-rank. As to the method:
(§1) Male BALB/c mice (Stock #028, Charles River, Wilmington, Mass.) were acclimated prior to irradiation at age 12 weeks. Studies were conducted in accordance with Dana-Farber Cancer Institute's ACUC-approved policies and protocols. Mice were placed into a Rad Disk™ rodent microisolation irradiation cage (Braintree Scientific, Braintree, Mass.) and administered a single 7 Gy dose by a Gammacell® 40Exactor (Best Theratronics, Ottawa, Ontario) cesium source irradiator. […]
For the human HSCT study, samples with undetectable analytes were assigned a value at half the lower limit of detection. For ANC, PLT, BPI, TLR4 and IL-6, data were analyzed after logarithmic transformation, as this yielded distributions that were more approximately normal. […] Comparisons between subjects with or without fever were evaluated using the Mann-Whitney test. When assessing correlations between different parameters, within-subject correlations were calculated using the Spearman correlation coefficient and data from multiple time-points. The calculated coefficients were averaged over the different subjects and significance tested with the signed rank test. […] Two tailed t tests (Mann-Whitney) are performed throughout except for citrulline data in which the data were analyzed by 1-sample t test as compared to theoretical mean of 100% and for hematologic analyses (Table 1) in which unpaired t tests were performed. […]

The subject of assay [2] is BALB/c mice after 7 Gy TBI. Put plainly: Peripheral blood counts after TBI (CBC, Hemavet). The settings on record: median; for WBC: treatment started 24 h after irradiation. The assay is classed as in vivo, mouse. The procedure:
Male BALB/c mice (Stock #028, Charles River, Wilmington, Mass.) were acclimated prior to irradiation at age 12 weeks. Studies were conducted in accordance with Dana-Farber Cancer Institute's ACUC-approved policies and protocols. Mice were placed into a Rad Disk™ rodent microisolation irradiation cage (Braintree Scientific, Braintree, Mass.) and administered a single 7 Gy dose by a Gammacell® 40Exactor (Best Theratronics, Ottawa, Ontario) cesium source irradiator. […] Moribund mice were euthanized via CO, asphyxiation. At scheduled time points, mice were sacrificed humanely via isoflurane anesthetic overdose (IsoFlo®-Abbott Labs, Abbott Park, Ill.).
CBCs were performed on a Hemavet 950 FS hematology analyzer (Drew Scientific, Waterbury, Conn.) with EDTA-anticoagulated (Becton-Dickinson, Franklin Lakes, N.J.) cardiac blood. Plasma was obtained by mixing blood with pyrogen-free heparin (APP Pharmaceutical, Schaumburg, Ill.), in pyrogen-free Eppendorf tubes (USA Scientific) and centrifugation at 14,000 rpm for 10 minutes. Single use aliquots were stored at −80° C. In some studies, femurs and tibiae from one leg/animal were dissected, fixed for 24 hours in 10% neutral buffered formalin (Fisher Scientific, Pittsburgh, Pa.), and processed, including coronal sectioning and hematoxylin and eosin (H&E) staining (Specialized Histopathology Services-Longwood, Boston, Mass.). […] Red blood cells were lysed with hypotonic lysing buffer (Sigma).

Assay [3] concerns BM of BALB/c mice after 7 Gy TBI. Put plainly: Femoral BM cellularity by histopathology. The format is in vivo, mouse. The conditions noted are these: D19 after 7 Gy. The procedure:
as §1
A Board-certified hematopathologist (JK) assessed femoral BM cellularity on decalcified, formalin fixed, H&E stained paraffin-fixed sections using an Olympus BX51 microscope and an Olympus DP71 camera with DP Capture software. For each animal, 2 slides with 2 fields/slide were scored for the percent of BM space occupied by hematopoietic cells. […]

Marks after values point to notes of the source that are not given here. Where only a bound is given, the exact number is not on record here.

`CCN1CCN(c2cc3c(cc2F)c(=O)c(C(=O)O)cn3C2CC2)CC1` [ENR, enrofloxacin]: in assay [1], the D30 survival entry is reported as “some survival benefit”. In addition, in assay [2] (D15 after 7 Gy TBI), the WBC is on record as 0.24 ▴ K/μL, the Hb was 8.80 ▴ ▪ g/dL, the Monocytes is recorded as 0 ▴ ● K/μL and the Neutrophils was 0 ▴ ● K/μL. In addition, the PLT in assay [2] (D15 after 7 Gy TBI) is given as 196 ▴ K/μL. Also, in assay [2] (D19 after 7 Gy TBI), the WBC is listed as 0.21 ▴ K/μL, the Hb was 8.35 ▴ ▪ g/dL, the Monocytes is 0 ▴ ● ▪ K/μL and the Neutrophils is recorded as 0 ▴ ● ▪ K/μL. In addition, the PLT in assay [2] (D19 after 7 Gy TBI) was 250.5 ▴ K/μL. Further, in assay [2] (D30 after 7 Gy TBI), the WBC is recorded as 1.84 ▴ ● K/μL, the Hb is on record as 13.1 ▴ g/dL, the Monocytes is reported as 0.14 ● K/μL and the Neutrophils is reported as 0.55 ● K/μL. Moreover, the PLT in assay [2] (D30 after 7 Gy TBI) was 713.5 ▴ K/μL. Also, the BM cellularity in assay [3] was less than 5%.
